Results reported in paper PMC3671792 (Biochemical Journal, 2013).

Experiments:
MmPKAc = biological target: T1, MmPKAc (Mus musculus, UniProt P05132); details: 25 uM ATP, 10 mM MgCl2, pH 7.5, 30 °C; labelled compound; GST-AMA1 phosphorylated, GST-Rh2b not
T1 construct: gene Prkaca

ZmCK2α = biological target: T2, ZmCK2α (Zea mays, UniProt P28523); details: 25 uM ATP, 10 mM MgCl2, pH 7.5, 30 °C; labelled compound; GST-Rh2b phosphorylated, GST-AMA1 not
T2 construct: gene ACK2

[1] = biological target: T3, PfCK2 α (CK2–HA, immunoprecipitated) (Plasmodium falciparum, UniProt Q8IIR9); experiment: phosphorylation of GST-Rh2b CPD by immunoprecipitated CK2-HA, phospho-specific Western blot; assay type: biochemical; details: 25 uM ATP, 10 mM MgCl2, pH 7.5, 30 °C; protein substrate GST-Rh2b CPD; kinase on beads
T3 construct: gene PF3D7_1108400; full coding region with C-terminal 3xHA tag, overexpressed episomally (crt promoter) in 3D7 parasites, immunoprecipitated on anti-HA/Protein G beads, ~42 kDa band; endogenous beta1/beta2 subunits could co-precipitate
T3 sequence (Q8IIR9 entry or part of it): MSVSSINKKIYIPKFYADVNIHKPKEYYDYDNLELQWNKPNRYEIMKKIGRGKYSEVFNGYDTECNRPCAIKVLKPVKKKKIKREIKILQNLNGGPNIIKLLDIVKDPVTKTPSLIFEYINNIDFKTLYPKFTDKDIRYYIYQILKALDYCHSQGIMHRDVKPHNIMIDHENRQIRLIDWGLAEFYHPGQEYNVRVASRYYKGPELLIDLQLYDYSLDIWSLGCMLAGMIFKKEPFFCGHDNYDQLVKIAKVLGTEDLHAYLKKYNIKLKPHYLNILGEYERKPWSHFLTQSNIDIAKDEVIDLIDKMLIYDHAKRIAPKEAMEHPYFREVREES

T2 sequence (P28523 whole entry): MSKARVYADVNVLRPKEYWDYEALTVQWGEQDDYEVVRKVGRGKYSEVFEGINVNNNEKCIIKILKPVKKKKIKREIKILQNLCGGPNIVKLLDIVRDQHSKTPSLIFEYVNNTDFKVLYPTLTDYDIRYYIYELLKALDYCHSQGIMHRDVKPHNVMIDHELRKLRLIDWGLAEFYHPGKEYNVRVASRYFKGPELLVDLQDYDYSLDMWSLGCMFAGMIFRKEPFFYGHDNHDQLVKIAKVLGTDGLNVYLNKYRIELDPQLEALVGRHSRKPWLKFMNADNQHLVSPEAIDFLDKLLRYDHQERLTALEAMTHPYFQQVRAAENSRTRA

Row | Compound | in vitro kinase assay with GST-AMA1 CPD, [γ-32P]ATP (MmPKAc) | in vitro kinase assay with GST-Rh2b CPD, [γ-32P]ATP (ZmCK2α) | inhibition (qualitative) [1]
1 | Nc1ncnc2c1ncn2[C@@H]1O[C@H](COP(=O)(O)OP(=O)(O)OP(=O)(O)O)[C@@H](O)[C@H]1O [ATP] | Although MmPKAc phosphorylated AMA1–GST, it showed no reactivity against GST–Rh2b | the enzyme was able to phosphorylate GST–Rh2b | –
2 | O=C(O)/C=C/c1cc(Br)c(Br)c(Br)c1Br [TBCA] | – | – | sensitive to heparin treatment (Figure 4E) and to increasing amounts of TBCA (Figure 4F)
